Reference: patent US20250082648A1, “COMPOSITIONS AND METHODS FOR ENHANCING KRAS INHIBITOR OR SHP2 INHIBITOR EFFICACY” (New York University, priority 2023, published 2025)

System: H23 cells
Experiment: CRISPR/Cas9 synthetic lethal screen with TNO155 alone
Assay type: cell-based, human

Compound: C[C@@H]1OCC2(CCN(c3cnc(Sc4ccnc(N)c4Cl)c(N)n3)CC2)[C@@H]1N [TNO155]
- neg|lfc (knockout gene AP2M1): −1.5896
- neg|lfc (knockout gene ATP6V0C): −2.4937
- neg|lfc (knockout gene ATP6V1F): −1.3822
- neg|lfc (knockout gene ATP6V1H): −1.2922
- neg|lfc (knockout gene BUB1): −1.3761
- neg|lfc (knockout gene C7orf26): −1.2403
- neg|lfc (knockout gene C12orf45): −0.8919
- neg|lfc (knockout gene C18orf21): −1.7774
- neg|lfc (knockout gene CAPZA1): −0.8323
- neg|lfc (knockout gene CARD10): −0.8745
- neg|lfc (knockout gene CD3EAP): −0.9138
- neg|lfc (knockout gene CENPM): −2.7542
- neg|lfc (knockout gene CFDP1): −1.4115
- neg|lfc (knockout gene COQ6): −0.9015
- neg|lfc (knockout gene COX6B1): −1.1999
- neg|lfc (knockout gene CS): −0.9482
- neg|lfc (knockout gene DCST2): −1.3843
- neg|lfc (knockout gene DDX52): −1.2486
- neg|lfc (knockout gene DENR): −1.046
- neg|lfc (knockout gene DHPS): −1.8131
- neg|lfc (knockout gene DPM3): −0.9381
- neg|lfc (knockout gene EGLN1): −1.2972
- neg|lfc (knockout gene ELP2): −0.9643
- neg|lfc (knockout gene EXOSC2): −2.2014
- neg|lfc (knockout gene FASTKD5): −1.4304
- neg|lfc (knockout gene FBL): −2.1994
- neg|lfc (knockout gene FXN): −2.3715
- neg|lfc (knockout gene G6PD): −2.0605
- neg|lfc (knockout gene GATA5): −0.7392
- neg|lfc (knockout gene GMPS): −1.5348
- neg|lfc (knockout gene GNB2L1): −1.4387
- neg|lfc (knockout gene GTF2H3): −0.8448
- neg|lfc (knockout gene GTF3C1): −1.8687
- neg|lfc (knockout gene HARS2): −1.9989
- neg|lfc (knockout gene HIRA): −1.0969
- neg|lfc (knockout gene HSPA13): −1.2857
- neg|lfc (knockout gene IPO9): −1.5514
- neg|lfc (knockout gene KIAA1324): −0.9092
- neg|lfc (knockout gene KREMEN2): −1.0026
- neg|lfc (knockout gene LARS): −2.0903
- neg|lfc (knockout gene LEMD2): −1.7855
- neg|lfc (knockout gene LIAS): −1.7787
- neg|lfc (knockout gene LRPPRC): −1.3022
- neg|lfc (knockout gene MCAT): −1.6999
- neg|lfc (knockout gene MMGT1): −1.1768
- neg|lfc (knockout gene MPHOSPH10): −1.2081
- neg|lfc (knockout gene MRPL2): −1.5188
- neg|lfc (knockout gene MRPS11): −2.1012
- neg|lfc (knockout gene MRPS14): −2.7074
- neg|lfc (knockout gene MTERFD1): −0.8478
- neg|lfc (knockout gene MTFMT): −1.4999
- neg|lfc (knockout gene MVD): −2.2878
- neg|lfc (knockout gene NDUFAF4): −2.8677
- neg|lfc (knockout gene NDUFS2): −1.6602
- neg|lfc (knockout gene NGDN): −1.6157
- neg|lfc (knockout gene NHP2): −2.4304
- neg|lfc (knockout gene NUP50): −1.7194
- neg|lfc (knockout gene OXA1L): −1.0359
- neg|lfc (knockout gene PAXIP1): −1.2046
- neg|lfc (knockout gene PELO): −1.8232
- neg|lfc (knockout gene PFDN2): −1.6271
- neg|lfc (knockout gene PHB): −0.6638
- neg|lfc (knockout gene PHF6): −0.9513
- neg|lfc (knockout gene PIGM): −0.9761
- neg|lfc (knockout gene PIK3C3): −1.3101
- neg|lfc (knockout gene PKN2): −1.323
- neg|lfc (knockout gene PLEC): −0.9261
- neg|lfc (knockout gene POLR3C): −2.1096
- neg|lfc (knockout gene PRMT1): −2.4486
- neg|lfc (knockout gene PTCD3): −1.5106
- neg|lfc (knockout gene RABGGTA): −1.5175
- neg|lfc (knockout gene RBFA): −1.2488
- neg|lfc (knockout gene RBM15): −0.9128
- neg|lfc (knockout gene RMND1): −2.1857
- neg|lfc (knockout gene RNGTT): −1.4545
- neg|lfc (knockout gene RNMTL1): −1.8816
- neg|lfc (knockout gene RPF2): −1.6299
- neg|lfc (knockout gene RPS2): −1.4859
- neg|lfc (knockout gene RRP36): −1.7306
- neg|lfc (knockout gene RSBN1): −1.1801
- neg|lfc (knockout gene SDHB): −1.352
- neg|lfc (knockout gene SDHC): −1.0873
- neg|lfc (knockout gene SLC30A9): −0.8169
- neg|lfc (knockout gene SMNDC1): −1.605
- neg|lfc (knockout gene SNRPA): −0.853
- neg|lfc (knockout gene SORT1): −0.7919
- neg|lfc (knockout gene SS18L2): −1.8054
- neg|lfc (knockout gene SYS1): −1.4135
- neg|lfc (knockout gene TAF2): −1.6548
- neg|lfc (knockout gene TAMM41): −1.389
- neg|lfc (knockout gene TEX10): −1.2531
- neg|lfc (knockout gene TFRC): −0.7641
- neg|lfc (knockout gene TRAPPC3): −1.2908
- neg|lfc (knockout gene TRAPPC11): −1.3146
- neg|lfc (knockout gene TRMT6): −1.3112
- neg|lfc (knockout gene TSC2): −1.2936
- neg|lfc (knockout gene VMP1): −2.2825
- neg|lfc (knockout gene XRCC3): −1.7596
- neg|lfc (knockout gene YARS): −2.5691
- neg|lfc (knockout gene YKT6): −1.2993
